The values below come from US7923561B2 (Hoffmann-La Roche Inc., priority 2006, dated 2011).

What is called pKi is the negative decadic logarithm of the Ki, by convention in mol/L.

Molecules are shown by their SMILES. pKi: −log10 of the molar value.

For this assay, the target named is T1, recombinant human 5-HT5A receptor (Homo sapiens, UniProt P47898).
T1 construct: expressed in transfected cells; host or cells: HEK-EBNA (Human Embryonic Kidney-EBNA) cells, transient cDNA expression, membranes
T1 sequence (P47898 whole entry): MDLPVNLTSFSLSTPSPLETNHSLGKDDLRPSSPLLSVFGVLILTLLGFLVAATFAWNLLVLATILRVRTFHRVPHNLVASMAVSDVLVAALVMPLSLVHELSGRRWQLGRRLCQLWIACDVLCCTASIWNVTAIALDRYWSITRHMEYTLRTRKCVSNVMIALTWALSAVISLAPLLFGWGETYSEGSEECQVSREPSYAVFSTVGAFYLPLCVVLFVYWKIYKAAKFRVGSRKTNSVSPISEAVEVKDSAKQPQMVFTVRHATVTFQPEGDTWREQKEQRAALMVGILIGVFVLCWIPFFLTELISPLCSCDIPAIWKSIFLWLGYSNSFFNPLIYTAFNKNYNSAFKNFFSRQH
The assay can be described thus: [3H]LSD radioligand binding assay, membranes of HEK-EBNA cells transiently expressing 5-HT5A receptors. The following applies: [3H]LSD approx. 1 nM, SPA beads, 120 min at room temperature; Ki from IC50 by Cheng-Prussoff equation. As to the method:
A [^3H]LSD radioligand binding assay was used to determine the affinity of the compounds for the recombinant human 5-HT5A receptor, in membranes from transiently (cDNA) expressed 5-HT5A receptors in Human Embryonic Kidney-EBNA (HEK-EBNA) cells. Assay buffer consisted of Tris (50 mM) buffer containing 1 mM EGTA, 10 mM MgCl2 (pH 7.4) and 10 μM pargyline. The binding assay was carried out in 96-well-plates in the presence of [^3H]LSD (approximately 1 nM), approximately 2 μg/well of membrane protein, and 0.5 mg of Ysi-poly-1-lysine SPA beads in a final volume of 200 μl of buffer. Non-specific binding was defined using methiothepin 2 μM. Compounds were tested at 10 concentrations. All assays were conducted in duplicate and repeated at least two times. Assay plates were incubated for 120 min at room temperature before centrifugation. Bound ligand was determined using a Packard Topcount scintillation counter. IC50 values were calculated using a non-linear curve fitting program and Ki values calculated using the Cheng-Prussoff equation.
With `Fc1cc(F)cc(CNc2cccc3nc(NC4COc5ccccc54)ccc23)c1` (racemic) [Example 17, rac-N5-(3,5-Difluoro-benzyl)-N2-(2,3-dihydro-benzofuran-3-yl)-quinoline-2,5-diamine], the pKi is 8.03. `c1cncc(CNc2cccc3nc(NC4COc5ccccc54)ccc23)c1` (racemic) [Example 18, rac-N2-(2,3-Dihydro-benzofuran-3-yl)-N5-pyridin-3-ylmethyl-quinoline-2,5-diamine]: the pKi was 7.66. The figure for `COc1cccc2c1C(Nc1ccc3c(NS(=O)(=O)c4cc(F)c(F)c(F)c4)cccc3n1)CC2` (racemic) [Example 19, rac-3,4,5-Trifluoro-N-[2-(7-methoxy-indan-1-ylamino)-quinolin-5-yl]-benzenesulfonamide] is 8.14; for `COc1ccc2c(c1)C(Nc1ccc3c(NS(=O)(=O)c4ccc(F)cc4)cccc3n1)CC2` (racemic) [Example 21, rac-4-Fluoro-N-[2-(6-methoxy-indan-1-ylamino)-quinolin-5-yl]-benzenesulfonamide] it is 7.80; for `COc1ccc2c(c1)C(Nc1ccc3c(NCc4cccnc4)cccc3n1)CC2` (racemic) [Example 23, rac-N2-(6-Methoxy-indan-1-yl)-N5-pyridin-3-ylmethyl-quinoline-2,5-diamine] it is 7.63. As to `COc1cccc2c1C(Nc1ccc3c(NS(=O)(=O)c4ccc(F)cc4)cccc3n1)CC2` (racemic) [Example 28, rac-4-Fluoro-N-[2-(7-methoxy-indan-1-ylamino)-quinolin-5-yl]-benzenesulfonamide], the pKi was 8.37. In the case of `COc1ccc2c(c1)C(Nc1ccc3c(NCc4cc(F)cc(F)c4)cccc3n1)CC2` (racemic) [Example 29, rac-N5-(3,5-Difluoro-benzyl)-N2-(6-methoxy-indan-1-yl)-quinoline-2,5-diamine], the pKi was 8.01. As for `COc1cccc2c1C(Nc1ccc3c(NCc4cccc5[nH]ccc45)cccc3n1)CC2` (racemic) [Example 57, rac-N5-(1H-Indol-4-ylmethyl)-N2-(7-methoxy-indan-1-yl)-quinoline-2,5-diamine], the negative logarithm of the Ki (pKi) is 8.43. As for `COc1cccc2c1C(Nc1ccc3c(NS(=O)(=O)c4cc(F)cc(F)c4)cccc3n1)CCC2` (racemic) [Example 59, rac 3,5-Difluoro-N-[2-(8-methoxy-1,2,3,4-tetrahydro-naphthalen-1-ylamino)-quinolin-5-yl]-benzenesulfonamide], the figure is 7.87. As for `O=S(=O)(Nc1cccc2nc(NC3CC4CCC3C4)ccc12)c1ccc(F)cc1` (racemic) [Example 60, rac-exo-N-[2-(Bicyclo[2.2.1]hept-2-ylamino)-quinolin-5-yl]-4-fluoro-benzenesulfonamide], the pKi is 6.71. As to `COc1cccc2c1C(Nc1ccc3c(NS(=O)(=O)c4cccc5c4ccn5C)cccc3n1)CC2` (racemic) [Example 61, rac-1-Methyl-1H-indole-4-sulfonic acid [2-(7-methoxy-indan-1-ylamino)-quinolin-5-yl]-amide], the pKi was 8.33. Consider `O=S(=O)(Nc1cccc2nc(NC3CCCc4ccccc43)ccc12)c1cc(F)cc(F)c1` (racemic) [Example 62, rac-3,5-Difluoro-N-[2-(1,2,3,4-tetrahydro-naphthalen-1-ylamino)-quinolin-5-yl]-benzenesulfonamide], for which the pKi was 7.22. As for `COc1cccc2c1C(Nc1ccc3c(NCc4cnc[nH]4)cccc3n1)CCC2` (racemic) [Example 67, Rac-N5-(3H-Imidazol-4-ylmethyl)-N2-(8-methoxy-1,2,3,4-tetrahydro-naphthalen-1-yl)-quinoline-2,5-diamine], the figure is 7.98; as for `COc1cccc2c1C(Nc1ccc3c(NCc4c[nH]nn4)cccc3n1)CCC2` (racemic) [Example 68, Rac-N2-(8-Methoxy-1,2,3,4-tetrahydro-naphthalen-1-yl)-N5-(1H-[1,2,3]triazol-4-ylmethyl)-quinoline-2,5-diamine], 7.81. Turning to `COc1cccc2c1C(Nc1ccc3c(NCc4cccc5[nH]ccc45)cccc3n1)CCC2` (racemic) [Example 70, Rac-N5-(1H-Indol-4-ylmethyl)-N2-(8-methoxy-1,2,3,4-tetrahydro-naphthalen-1-yl)-quinoline-2,5-diamine], the pKi is 7.80. Consider `COc1ccc2c(c1)C(Nc1ccc3c(NS(=O)(=O)c4cc(F)c(F)c(F)c4)cccc3n1)CC2` (single isomer, unassigned; (+)) [Example 20, (+)-3,4,5-Trifluoro-N-[2-(6-methoxy-indan-1-ylamino)-quinolin-5-yl]-benzenesulfonamide], for which the pKi was 7.74. In the case of `c1cncc(CNc2cccc3nc(NC4COc5ccccc54)ccc23)c1` (single isomer, unassigned; (+)) [Example 27, (+)-N2-2,3-Dihydro-benzofuran-3-yl-N5-pyridin-3-ylmethyl-quinoline-2,5-diamine], the pKi was 7.59. As for `COc1ccc2c(c1)C(Nc1ccc3c(NCc4cccc(S(C)(=O)=O)c4)cccc3n1)CC2` (single isomer, unassigned; (+)) [Example 30, (+)-N5-(3-Methanesulfonyl-benzyl)-N2-(6-methoxy-indan-1-yl)-quinoline-2,5-diamine], the pKi was 7.72.

Consider `Fc1cc(F)cc(CNc2cccc3nc(NC4COc5ccccc54)ccc23)c1` (single isomer, unassigned; (+)) [Example 32, (+)-N5-(3,5-Difluoro-benzyl)-2,3-dihydro-benzofuran-3-yl-quinoline-2,5-diamine], for which the pKi is 7.90.

As to `COc1ccc2c(c1)C(Nc1ccc3c(NS(=O)(=O)c4ccc(F)cc4)cccc3n1)CC2` (single isomer, unassigned; (+)) [Example 33, (+)-4-Fluoro-N-[2-(6-methoxy-indan-1-ylamino)-quinolin-5-yl]-benzenesulfonamide], the pKi is 7.92.

Consider `COc1ccc2c(c1)C(Nc1ccc3c(NCc4cc(F)cc(F)c4)cccc3n1)CC2` (single isomer, unassigned; (+)) [Example 35, (+)-N5-(3,5-Difluoro-benzyl)-N2-(6-methoxy-indan-1-yl)-quinoline-2,5-diamine], for which the pKi was 8.11. On to `COc1ccc2c(c1)C(Nc1ccc3c(NCc4cccnc4)cccc3n1)CC2` (single isomer, unassigned; (+)) [Example 37, (+)-N2-(6-Methoxy-indan-1-yl)-N5-pyridin-3-ylmethyl-quinoline-2,5-diamine], for which the pKi was 7.75. For the molecule `O=S(=O)(Nc1cccc2nc(NC3COc4ccccc43)ccc12)c1cc(F)cc(F)c1` (single isomer, unassigned; (+)) [Example 41, (+)-N-{2-[(2,3-Dihydro-benzofuran-3-yl)amino]-quinolin-5-yl}-3,5-difluoro-benzenesulfonamide], the pKi is 7.64. As for `O=S(=O)(Nc1cccc2nc(N[C@@H]3CCc4ccccc43)ccc12)c1ccc(F)cc1` [Example 1, 4-Fluoro-N-[2-((R)-indan-1-ylamino)-quinolin-5-yl]-benzenesulfonamide], the pKi is 8.42. As to `c1cncc(COc2cccc3nc(N[C@@H]4CCc5ccccc54)ccc23)c1` [Example 4, (R)-Indan-1-yl-[5-(pyridin-3-ylmethoxy)-quinolin-2-yl]-amine], the pKi is 7.43. The figure for `O=S(=O)(Nc1cccc2nc(N[C@@H]3CCc4ccccc43)ccc12)c1ccc(Cl)s1` [Example 5, 5-Chloro-thiophene-2-sulfonic acid [2-((R)-indan-1-ylamino)-quinolin-5-yl]-amide] is 8.44. For the molecule `Fc1cc(F)cc(CNc2cccc3nc(N[C@@H]4CCc5ccccc54)ccc23)c1` [Example 6, N5-(3,5-Difluoro-benzyl)-N2-(R)-indan-1-yl-quinoline-2,5-diamine], the pKi is 8.73. For the molecule `Clc1ccc(Nc2cccc3nc(N[C@@H]4CCc5ccccc54)ccc23)cc1` [Example 7, N5-(4-Chloro-phenyl)-N2-(R)-indan-1-yl-quinoline-2,5-diamine], the pKi is 8.55.

Consider `CN(c1cccc2nc(N[C@@H]3CCc4ccccc43)ccc12)S(=O)(=O)c1ccc(F)cc1` [Example 8, 4-Fluoro-N-[2-((R)-indan-1-ylamino)-quinolin-5-yl]-N-methyl-benzenesulfonamide], for which the pKi is 7.87. Take `Fc1ccc(Oc2cccc3nc(N[C@@H]4CCc5ccccc54)ccc23)cc1` [Example 9, [5-(4-Fluoro-phenoxy)-quinolin-2-yl]-(R)-indan-1-yl-amine]: the pKi was 7.04. Regarding `O=S(=O)(Nc1cccc2nc(N[C@@H]3CCc4ccccc43)ccc12)c1cc(F)cc(F)c1` [Example 11, 3,5-Difluoro-N-[2-((R)-indan-1-ylamino)-quinolin-5-yl]-benzenesulfonamide], the pKi is 8.23.

`c1cncc(CNc2cccc3nc(N[C@@H]4CCc5ccccc54)ccc23)c1` [Example 12, N2-(R)-Indan-1-yl-N5-pyridin-3-ylmethyl-quinoline-2,5-diamine]: the pKi was 8.29. As for `O=S(=O)(Nc1cccc2nc(N[C@@H]3CCc4ccccc43)ccc12)c1cc(F)c(F)c(F)c1` [Example 16, 3,4,5-Trifluoro-N-[2-((R)-indan-1-ylamino)-quinolin-5-yl]-benzenesulfonamide], the pKi was 7.95. As for `COc1cccc2c1C(Nc1ccc3c(NS(=O)(=O)c4cc(F)cc(F)c4)cccc3n1)CC2` (stereo not shown) [Example 39, 3,5-Difluoro-N-[2-(7-methoxy-indan-1-ylamino)-quinolin-5-yl]-benzenesulfonamide], the figure is 8.34.
